According to US11702404B2, “GLP-1R modulating compounds” (priority 2019, dated 2023):

How the values were obtained:
[1] = biological target: GLP-1R (Homo sapiens, UniProt P43220); experiment: GLP-1R activation: cAMP increase in CHO cells stably expressing GLP-1R; format: cell-based; settings: cAMP increase, CHO cells stably expressing GLP-1R, 10 point dose response, 30 minutes incubation; read-out: EC50
[2] = Microsomal stability, human liver microsomes (predicted hepatic clearance); settings: predicted from in vitro microsomal stability data

GLP-1R, sequence (P43220 24-463): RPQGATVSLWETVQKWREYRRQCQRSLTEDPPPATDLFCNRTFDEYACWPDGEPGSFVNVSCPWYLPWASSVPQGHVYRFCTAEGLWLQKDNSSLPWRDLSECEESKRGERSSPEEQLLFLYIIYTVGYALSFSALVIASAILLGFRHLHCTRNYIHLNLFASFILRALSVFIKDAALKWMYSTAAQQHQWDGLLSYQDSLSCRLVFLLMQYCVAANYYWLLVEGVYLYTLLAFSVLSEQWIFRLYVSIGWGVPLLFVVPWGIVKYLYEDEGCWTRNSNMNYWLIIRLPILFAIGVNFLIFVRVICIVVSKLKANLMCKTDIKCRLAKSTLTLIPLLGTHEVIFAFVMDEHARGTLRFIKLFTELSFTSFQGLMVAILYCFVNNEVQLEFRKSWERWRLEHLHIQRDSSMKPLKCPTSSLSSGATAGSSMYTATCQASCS

Row | Structure (SMILES) | EC50 [1] [nM] | Predicted Hepatic Clearance (Pred. Cl.) [2] [mL/min/kg]
1 | COCCn1c(Cc2cc(F)c(-c3ccnc(OCc4ccc(C#N)cc4F)n3)cc2F)nc2ccc(C(=O)O)cc21 [Example 349, 2-(4-(2-((4-cyano-2-fluorobenzyl)oxy)pyrimidin-4-yl)-2,5-difluorobenzyl)-1-(2-methoxyethyl)-1H-benzo[d]imidazole-6-carboxylic acid] | 3.05 | <1.83
2 | CC1(Cn2c(Cc3ccc(-c4cccc(OCc5ccc(C#N)cc5F)n4)cc3F)nc3ccc(C(=O)NS(=O)(=O)C4CC4)cc32)CC1 [Example 50, 2-(4-(6-((4-Cyano-2-fluorobenzyl)oxy)pyridin-2-yl)-2-fluorobenzyl)-N-(cyclopropylsulfonyl)-1-((1-methylcyclopropyl)methyl)-1H-benzo[d]imidazole-6-carboxamide] | 19 | <1.83
3 | N#Cc1ccc(COc2cccc(-c3cc(F)c(Cc4nc5ccc(C(=O)O)cc5n4[C@@H]4CCNC4=O)cc3F)n2)c(F)c1 [Example 631] | 74.9 | 3
4 | COCCn1c(Cc2ccc(-c3cccc(OCc4ccc(C(F)(F)F)nc4F)n3)cc2F)nc2ccc(C(=O)O)cc21 [Example 487, 2-(2-fluoro-4-(6-((2-fluoro-6-(trifluoromethyl)pyridin-3-yl)methoxy)pyridin-2-yl)benzyl)-1-(2-methoxyethyl)-1H-benzo[d]imidazole-6-carboxylic acid] | 100 | 5.33
5 | N#Cc1cc(F)c(COc2cccc(-c3cc(F)c(Cc4nc5ccc(C(=O)O)cc5n4C[C@@H]4CCO4)c(F)c3)n2)cc1F [Example 680] | 0.11 | 5.5
6 | N#Cc1ccc(COc2cccc(-c3cc(F)c(Cc4nc5ccc(C(=O)O)cc5n4CC4(CF)CC4)cc3F)n2)c(F)c1 [Example 429, 2-(4-(6-((4-cyano-2-fluorobenzyl)oxy)pyridin-2-yl)-2,5-difluorobenzyl)-1-((1-(fluoromethyl)cyclopropyl)methyl)-1H-benzo[d]imidazole-6-carboxylic acid] | 0.61 | 3.83
7 | N#Cc1ccc(COc2cccc(-c3ccc(Cc4nc5cccc(C(=O)O)c5n4CC4(CF)CC4)c(F)c3)n2)c(F)c1 [Example 224, 2-(4-(6-((4-cyano-2-fluorobenzyl)oxy)pyridin-2-yl)-2-fluorobenzyl)-1-((1-(fluoromethyl)cyclopropyl)methyl)-1H-benzo[d]imidazole-7-carboxylic acid] | 23.6 | 7.5
8 | COCCn1c(Cc2ccc(-c3cccc(OCc4ccc(C#N)cc4F)n3)c(F)c2F)nc2ccc(C(=O)O)cc21 [Example 45, 2-(4-(6-((4-cyano-2-fluorobenzyl)oxy)pyridin-2-yl)-2,3-difluorobenzyl)-1-(2-methoxyethyl)-1H-benzo[d]imidazole-6-carboxylic acid] | 36 | 3.83
9 | CC1(C)CC[C@@H](Cn2c(Cc3cc(F)c(-c4cccc(OCc5ccc(C#N)cc5F)n4)cc3F)nc3ccc(C(=O)O)cc32)O1 (racemic) [Example 549, 2-(4-(6-((4-cyano-2-fluorobenzyl)oxy)pyridin-2-yl)-2,5-difluorobenzyl)-1-((5,5-dimethyltetrahydrofuran-2-yl)methyl)-1H-benzo[d]imidazole-6-carboxylic acid] | 45.5 | 12
10 | CC12CCC(Cn3c(Cc4cc(F)c(-c5cccc(OCc6ccc(C#N)cc6F)n5)cc4F)nc4ccc(C(=O)O)cc43)(C1)OC2 (stereo not shown) [Example 714] | 24.9 | 1.83
11 | N#Cc1ccc(COc2cccc(-c3ccc(Cc4nc5ccc(C(=O)O)cc5n4CC4(O)COC4)c(F)c3)n2)c(F)c1 [Example 316, 2-(4-(6-((4-cyano-2-fluorobenzyl)oxy)pyridin-2-yl)-2-fluorobenzyl)-1-((3-hydroxyoxetan-3-yl)methyl)-1H-benzo[d]imidazole-6-carboxylic acid] | 14 | 4.67
12 | N#Cc1ccc(COc2nc(-c3ccc(Cc4nc5ccc(C(=O)O)cc5n4CC4(CF)CC4)c(F)c3)ccc2F)c(F)c1 [Example 134, 2-(4-(6-((4-cyano-2-fluorobenzyl)oxy)-5-fluoropyridin-2-yl)-2-fluorobenzyl)-1-((1-(fluoromethyl)cyclopropyl)methyl)-1H-benzo[d]imidazole-6-carboxylic acid] | 0.34 | <1.83
13 | COCCn1c(Cc2ncc(-c3cccc(OCc4ccc(C#N)cc4F)n3)cc2F)nc2ccc(C(=O)O)cc21 [Example 60, 2-{[5-[6-[(4-cyano-2-fluoro-phenyl)methoxy]-2-pyridyl]-3-fluoro-2-pyridyl]methyl}-3-(2-methoxyethyl)benzimidazole-5-carboxylic acid] | 30 | <1.83
14 | COCCn1c(Cc2c(F)cc(-c3cccnc3OCc3ccc(C#N)cc3F)cc2F)nc2ccc(C(=O)O)cc21 [Example 179, 2-(4-(2-((4-cyano-2-fluorobenzyl)oxy)pyridin-3-yl)-2,6-difluorobenzyl)-1-(2-methoxyethyl)-1H-benzo[d]imidazole-carboxylic acid] | 45.6 | 3.5
15 | N#Cc1ccc(COc2cccc(-c3ccn(Cc4nc5ccc(C(=O)O)cc5n4C[C@@H]4CCO4)c(=O)c3)n2)c(F)c1 [Example 423, (S)-2-((6-((4-cyano-2-fluorobenzyl)oxy)-2′-oxo-[2,4′-bipyridin]-1′(2′H)-yl)methyl)-1-(oxetan-2-ylmethyl)-1H-benzo[d]imidazole-6-carboxylic acid] | 4.12 | <1.83
16 | COCCn1c(Cc2c(F)cc(-c3cccnc3OCc3ccc(Cl)cc3F)cc2F)nc2ccc(C(=O)O)cc21 [Example 174, 2-(4-(2-((4-chloro-2-fluorobenzyl)oxy)pyridin-3-yl)-2,6-difluorobenzyl)-1-(2-methoxyethyl)-1H-benzo[d]imidazole-carboxylic acid] | 32.9 | 5.67
17 | COCCn1c(Cc2ccc(-c3nsc(OCc4ccc(C#N)cc4F)n3)cc2F)nc2ccc(C(=O)O)cc21 [Example 63, 2-{[4-[5-[(4-cyano-2-fluoro-phenyl)methoxy]-1,2,4-thiadiazol-3-yl]-2-fluoro-phenyl]methyl}-3-(2-methoxyethyl)benzimidazole-5-carboxylic acid] | 164 | <1.83
18 | COCCn1c(Cc2cc(F)c(-c3cccc(OCc4ccc(C(F)(F)F)c(F)c4F)n3)cc2F)nc2ccc(C(=O)O)cc21 [Example 872, 2-[[4-[6-[[2,3-difluoro-4-(trifluoromethyl)phenyl]methoxy]-2-pyridyl]-2,5-difluoro-phenyl]methyl]-3-(2-methoxyethyl)benzimidazole-5-carboxylic acid] | 5.09 | 1.83
19 | COCCn1c(Cc2ccc(-c3nccc(OCc4ccc(C#N)cc4F)n3)cc2F)nc2ccc(C(=O)O)cc21 [Example 25, 2-{[4-[4-[(4-cyano-2-fluoro-phenyl)methoxy]pyrimidin-2-yl]-2-fluoro-phenyl]methyl}-3-(2-methoxyethyl)benzimidazole-5-carboxylic acid] | 25.9 | 7.33
20 | COCCn1c(Cc2cc(F)c(-c3ccnc(OCc4ccc(C#N)cc4OC)n3)cc2F)nc2ccc(C(=O)O)cc21 [Example 368, 2-(4-(2-((4-cyano-2-methoxybenzyl)oxy)pyrimidin-4-yl)-2,5-difluorobenzyl)-1-(2-methoxyethyl)-1H-benzo[d]imidazole-6-carboxylic acid] | 0.77 | <1.83
21 | COCCn1c(Cc2ccc(-c3cccnc3OCc3ccc(C#N)cc3F)cc2F)nc2ccc(C(=O)O)cc21 [Example 180, 2-(4-(2-((4-cyano-2-fluorobenzyl)oxy)pyridin-3-yl)-2-fluorobenzyl)-1-(2-methoxyethyl)-1H-benzo[d]imidazole-carboxylic acid] | 257 | 6.33
22 | N#Cc1ccc(COc2cccc(-c3cc(F)c(Cc4nc5ccc(C(=O)O)cc5n4[C@@H]4C[C@H]4C(F)F)cc3F)n2)c(F)c1 [Example 720] | 27.8 | 5.33
23 | N#Cc1ccc(COc2cccc(-c3ccc(Cc4nc5ccc(C(=O)O)cc5n4C4COC4)c(F)c3)n2)c(F)c1 [Example 203, 2-(4-(6-((4-cyano-2-fluorobenzyl)oxy)pyridin-2-yl)-2-fluorobenzyl)-1-(oxetan-3-yl)-1H-benzo[d]imidazole-6-carboxylic acid] | 420 | 4.83
24 | COCCn1c(Cc2ccc(-c3cc(C(F)(F)F)cc(OCc4ccc(C#N)cc4F)n3)cc2F)nc2ccc(C(=O)O)cc21 [Example 90, 2-(4-(6-((4-cyano-2-fluorobenzyl)oxy)-4-(trifluoromethyl)pyridin-2-yl)-2-fluorobenzyl)-1-(2-methoxyethyl)-1H-benzo[d]imidazole-6-carboxylic acid] | 72.4 | 10
25 | COCCn1c(Cc2cc(F)c(-c3cccc(OCc4cccc(-c5ncccn5)c4)n3)cc2F)nc2ccc(C(=O)O)cc21 [Example 909] | 2.25 | 3.67
26 | COCCn1c(Cc2ccc(-c3cccc(OCc4ccc(C#N)cc4F)n3)cc2C#CC2CC2)nc2ccc(C(=O)O)cc21 [Example 257, 2-(4-(6-((4-cyano-2-fluorobenzyl)oxy)pyridin-2-yl)-2-(cyclopropylethynyl)benzyl)-1-(2-methoxyethyl)-1H-benzo[d]imidazole-6-carboxylic acid] | 1.43 | 5.83
